Experimental data taken from patent publication US11649218B2, “C-Abl tyrosine kinase inhibitory compound embodiments and methods of making and using the same” (The USA, as represented by the Secretary, Dept. of Health …, priority 2018, dated 2023).

System: Leukemia K562 cell
Test: Leukemia K562 cell proliferation/viability assay (CellTiterGlo, 48 hours)
Assay type: cell-based
Design: unit not given here
Conditions: K562 cells
Protocol: C-Abl is encoded by the ABL1 gene (NCBI Gene ID NO. 25). […] Assays for determining if a small molecule inhibits c-Abl activity are known. Non-limiting examples include cell proliferation assays using cancer cells that are BCR-Abl positive and depend on BCR-Abl for growth, such as the leukemia cell line K562. […] In some embodiments described herein, compounds are tested for ability to reduce K562 cell proliferation in an HTS adapted assay which measures cell viability using the reagent CellTiterGlo after 48 hours treatment.

Compound | Efficacy
O=C(NCCO)c1cccc(-c2cc(Nc3ccc(OC(F)(F)F)cc3)ncn2)c1 [GNF-5] | −85.8
NC(=O)c1cccc(-c2ccc3c(c2)C(=O)Nc2cc(OC(F)(F)F)ccc2N3)c1 [NCGC00354777, 3-(11-Oxo-8-(trifluoromethoxy)-10,11-dihydro-5H-dibenzo[b,e][1,4]diazepin-2-yl)benzamide] | −95.9
CS(=O)(=O)Nc1ccc(-c2ccc3c(c2)C(=O)Nc2cc(OC(F)(F)F)ccc2N3)cc1 [NCGC00355552, N-(4-(11-oxo-8-(trifluoromethoxy)-10,11-dihydro-5H-dibenzo[b,e][1,4]diazepin-2-yl)phenyl)methanesulfonamide] | −86.3
O=C(NCCO)c1cccc(-c2ccc3c(c2)C(=O)Nc2cc(OC(F)(F)F)ccc2N3)c1 [NCGC00355556, N-(2-hydroxyethyl)-3-(11-oxo-8-(trifluoromethoxy)-10,11-dihydro-5H-dibenzo[b,e][1,4]diazepin-2-yl)benzamide] | −90.9
O=C(NCCN1CCOCC1)c1cccc(-c2ccc3c(c2)C(=O)Nc2cc(OC(F)(F)F)ccc2N3)c1 [NCGC00355557, N-(2-Morpholinoethyl)-3-(11-oxo-8-(trifluoromethoxy)-10,11-dihydro-5H-dibenzo[b,e][1,4]diazepin-2-yl)benzamide] | −91.1
O=C1Nc2cc(OC(F)(F)F)ccc2Nc2ccc(-c3cccc(C(=O)N4CCOCC4)c3)cc21 [NCGC00355558, 2-(3-(Morpholine-4-carbonyl)phenyl)-8-(trifluoromethoxy)-5,10-dihydro-11H-dibenzo[b,e][1,4]diazepin-11-one] | −89.5
NCCNC(=O)c1cccc(-c2ccc3c(c2)C(=O)Nc2cc(OC(F)(F)F)ccc2N3)c1 [NCGC00355568, N-(2-Aminoethyl)-3-(11-oxo-8-(trifluoromethoxy)-10,11-dihydro-5H-dibenzo[b,e][1,4]diazepin-2-yl)benzamide] | −81.4
O=C1Nc2cc(OC(F)(F)F)ccc2Nc2ccc(-c3cccc(C(=O)N4CCNCC4)c3)cc21 [NCGC00355569, 2-(3-(Piperazine-1-carbonyl)phenyl)-8-(trifluoromethoxy)-5,10-dihydro-11H-dibenzo[b,e][1,4]diazepin-11-one] | −97.3
CS(=O)(=O)Nc1cccc(-c2ccc3c(c2)C(=O)Nc2cc(OC(F)(F)F)ccc2O3)c1 [NCGC00356665, N-(3-(11-Oxo-8-(trifluoromethoxy)-10,11-dihydrodibenzo[b,f][1,4]oxazepin-2-yl)phenyl)methanesulfonamide] | −83.8
CS(=O)(=O)Nc1ccc(-c2ccc3c(c2)C(=O)Nc2cc(OC(F)(F)F)ccc2O3)cc1 [NCGC00356666, N-(4-(11-Oxo-8-(trifluoromethoxy)-10,11-dihydrodibenzo[b,f][1,4]oxazepin-2-yl)phenyl)methanesulfonamide] | −79.9
O=C(NCCO)c1cccc(-c2ccc3c(c2)C(=O)Nc2cc(OC(F)(F)F)ccc2O3)c1 [NCGC00356688, N-(2-Hydroxyethyl)-3-(11-oxo-8-(trifluoromethoxy)-10H-dihydrodibenzo[b,f][1,4]oxazepin-2-yl)benzamide] | −89.8
CN1CCN(C(=O)c2cccc(-c3ccc4c(c3)C(=O)Nc3cc(OC(F)(F)F)ccc3O4)c2)CC1 [NCGC00356690, 2-(3-(4-Methylpiperazine-1-carbonyl)phenyl)-8-(trifluoromethoxy)dibenzo[b,f][1,4]oxazepin-11(10H)-one] | −121.9
O=C1Nc2cc(OC(F)(F)F)ccc2Oc2ccc(-c3cccc(C(=O)N4CCOCC4)c3)cc21 [NCGC00356745, 2-(3-(Morpholine-4-carbonyl)phenyl)-8-(trifluoromethoxy)dibenzo[b,f][1,4]oxazepin-11(10H)-one] | −98.3
NC(=O)c1cccc(-c2ccc3c(c2)C(=O)Nc2cc(OC(F)(F)F)ccc2O3)c1 [NCGC00356842, 3-(11-Oxo-8-(trifluoromethoxy)-10,11-dihydrodibenzo[b,f][1,4]oxazepin-2-yl)benzamide] | −67.0
O=C1Nc2cc(OC(F)(F)F)ccc2Oc2ccc(-c3cccnc3)cc21 [NCGC00371308, 2-(Pyridin-3-yl)-8-(trifluoromethoxy)dibenzo[b,f][1,4]oxazepin-11(10H)-one] | −7.0
O=C1Nc2cc(OC(F)(F)F)ccc2Oc2ccc(-c3ccncc3)cc21 [NCGC00371309, 2-(Pyridin-4-yl)-8-(trifluoromethoxyl)dibenzo[b,f][1,4]oxazepin-11(10H)-one] | −77.6
O=C1Nc2cc(OC(F)(F)F)ccc2Oc2ccc(-c3cncnc3)cc21 [NCGC00371310, 2-(Pyrimidin-5-yl)-8-(trifluoromethoxy)dibenzo[b,f][1,4]oxazepin-11(10H)-one] | −15.0
NS(=O)(=O)c1cccc(-c2ccc3c(c2)C(=O)Nc2cc(OC(F)(F)F)ccc2O3)c1 [NCGC00371364, 3-(11-Oxo-8-(trifluoromethoxy)-10,11-dihydrodibenzo[b,f][1,4]oxazepin-2-yl)benzenesulfonamide] | −94.9

Compound | Efficacy
CS(=O)(=O)Nc1cccc(-c2ccc3c(c2)CNc2cc(OC(F)(F)F)ccc2O3)c1 [NCGC00371644, N-(3-(8-(Trifluoromethoxy)-10,11-dihydrodibenzo[b,f][1,4]oxazepin-2-yl)phenyl)methanesulfonamide] | −90.7
CN(C)S(=O)(=O)c1cccc(-c2ccc3c(c2)C(=O)Nc2cc(OC(F)(F)F)ccc2O3)c1 [NCGC00373057, N,N-Dimethyl-3-(11-oxo-8-(trifluoromethoxy)-10. I1-dihydrodibenzo[b,f][1,4]oxazepin-2-yl)benzenesulfonamide] | −85.1
O=C1Nc2cc(OC(F)(F)F)ccc2Oc2ccc(-c3ccc4[nH]ncc4c3)cc21 [NCGC00373058, 2-(1H-Indazol-5-yl)-8-(trifluoromethoxy)dibenzo[b,f][1,4]oxazepin-11(10H)-one] | −74.3
O=C1Nc2cc(OC(F)(F)F)ccc2Oc2ccc(-c3ccnc4[nH]ccc34)cc21 [NCGC00373059, 2-(1H-Pyrrolo[2,3-b]pyridin-4-yl)-8-(trifluoromethoxy)dibenzo[b,f][1.4]oxazepin-11(10H)-one] | −52.9
Nc1cc(-c2ccc3c(c2)C(=O)Nc2cc(OC(F)(F)F)ccc2O3)ccn1 [NCGC00373061, 2-(2-Aminopyridin-4-yl)-8-(trifluoromethoxy)dibenzo[b,f][1,4]oxazepin-11(10H)-one] | −87.0
COc1ccc(-c2ccc3c(c2)C(=O)Nc2cc(OC(F)(F)F)ccc2O3)cc1O [NCGC00373062, 2-(3-Hydroxy-4-methoxyphenyl)-8-(trifluoromethoxy)dibenzo[b,f][1,4]oxazepin-11(10H)-one] | −93.7
CN1CCN(c2cc(-c3ccc4c(c3)C(=O)Nc3cc(OC(F)(F)F)ccc3O4)ccn2)CC1 [NCGC00373063, 2-(2-(4-Methylpiperazin-1-yl)pyridin-4-yl)-8-(trifluoromethoxy)dibenzo[b,f][1,4]oxazepin-11(10H)-one] | −107.9
O=C1Nc2cc(OC(F)(F)F)ccc2Oc2ccc(-c3cccc(S(=O)(=O)NCCO)c3)cc21 [NCGC00373064, N-(2-Hydroxyethyl)-3-(11-oxo-8-(trifluoromethoxy)-10,11-dihydrodibenzo[b,f][1,4]oxazepin-2-yl)benzenesulfonamide] | −103.3
CS(=O)(=O)Nc1cccc(-c2ccc3c(c2)C(N)=Nc2cc(OC(F)(F)F)ccc2O3)c1 [NCGC00373124, N-(3-(11-Amino-8-(trifluoromethoxy)dibenzo[b,f][1,4]oxazepin-2-yl)phenyl)methanesulfonamide] | −87.5
CN1C(=O)c2cc(-c3cccc(NS(C)(=O)=O)c3)ccc2Oc2ccc(OC(F)(F)F)cc21 [NCGC00384233] | −75.1
CN1C(=O)c2ccc(-c3cccc(NS(C)(=O)=O)c3)cc2Oc2ccc(OC(F)(F)F)cc21 [NCGC00384234] | −54.1
CS(=O)(=O)Nc1cccc(-c2ccc3c(c2)Oc2ccc(OC(F)(F)F)cc2NC3=O)c1 [NCGC00384235, N-(3-(11-Oxo-8-(trifluoromethoxy)-10,11-dihydrodibenzo[b,f][1,4]oxazepin-3-yl)phenyl)methanesulfonamide] | −99.8
CN1C(=O)c2ccc(-c3cccc(N(C)S(C)(=O)=O)c3)cc2Oc2ccc(OC(F)(F)F)cc21 [NCGC00384267] | −48.4
CN1C(=O)c2cc(-c3cccc(N(C)S(C)(=O)=O)c3)ccc2Oc2ccc(OC(F)(F)F)cc21 [NCGC00384286, N-Methyl-N-(3-(10-methyl-11-oxo-8-(trifluoromethoxy)-10,11-dihydrodibenzo[b,f][1,4]oxazepin-2-yl)phenyl)methanesulfonamide] | −54.6
CS(=O)(=O)Nc1cccc(-c2ccc3c(c2)Oc2ccc(OC(F)(F)F)cc2C(=O)N3)c1 [NCGC00384295, N-(3-(11-Oxo-2-(trifluoromethoxy)-10,11-dihydrodibenzo[b,f][1,4]oxazepin-7-yl)phenyl)methanesulfonamide] | −80.6
CS(=O)(=O)Nc1cccc(-c2ccc3c(c2)Oc2cc(OC(F)(F)F)ccc2NC3=O)c1 [NCGC00384296, N-(3-(11-oxo-7-(trifluoromethoxy)-10,11-dihydrodibenzo[b,f][1,4]oxazepin-3-yl)phenyl)methanesulfonamide] | −73.3
N#CCCn1cc(-c2ccc3c(c2)C(=O)Nc2cc(OC(F)(F)F)ccc2O3)cn1 [NCGC00387293, 3-(4-(11-Oxo-8-(trifluoromethoxy)-10,11-dihydrodibenzo[b,f][1,4]oxazepin-2-yl)-1H-pyrazol-1-yl)propanenitrile] | −84.4
CC(C)(O)Cn1cc(-c2ccc3c(c2)C(=O)Nc2cc(OC(F)(F)F)ccc2O3)cn1 [NCGC00387294, 2-(1-(2-Hydroxy-2-methylpropyl)-1H-pyrazol-4-yl)-8-(trifluoromethoxy)dibenzo[b,f][1,4]oxazepin-11(10H)-one] | −82.3
